From publication PMC2424174, “Suppression of Tumor Growth and Angiogenesis by a Specific Antagonist of the Cell-Surface Expressed Nucleolin” (PLoS ONE, 2008)

Key:
PC3 cells = assay: Colony formation in soft agar, PC3; type: cell-based, human; settings: 5 µM HB-19, PC3
Description: Figure 4 HB-19 inhibits colony formation in soft agar by tumor cell lines. (A) MDA-MB-231 cells in culture medium were seeded in triplicate in the absence (histogram C) or presence of 0.1, 0.5 and 1 of µM HB-19, or 0.1 µM of the anti-nucleolin mAb MS-3 or control IgG, or 10 µM bisphosphonate (BisP). (B) Various tumor cell lines (as indicated) in culture medium were seeded in triplicate in the absence (histogram Control) or presence of 5 µM HB-19. After 10–21 days, colonies with diameters greater than 50 µm were scored as positive. Statistical significance: *0.01<p<[…], **p<0.01, ***p<0.001.
Carcinoma cells (2×10^4) were mixed in 0.35% top agar, diluted in complete medium (DMEM containing 10% FBS) in the absence or presence of HB-19, and plated onto 0.8% bottom agar into 12-well plates. Cells were treated twice a week during 10 to 21 days. Colonies with diameters greater than 50 µm were scored as positive using a phase contrast microscope equipped with a measuring grid at magnification 100× [45]. The number of colonies was determined by analyzing 5 fields/well from 3 wells and the test was repeated at least twice.

HUVECs [1] = assay: Proliferation of VEGF stimulated HUVECs; type: cell-based, human; settings: 0.25 nM VEGF165; 1 µM HB-19 or 0.1 µM mAb MS-3; 72 h; mean of triplicate
Description: Figure 6 Inhibition of in vitro and in vivo angiogenesis by HB-19. (A) HB-19 inhibits proliferation of HUVECs. Twenty-four hours after seeding HUVECs in 2% FBS, cells were stimulated by 0.25 nM VEGF165, in the absence or presence of 1 µM HB-19 or 0.1 µM anti-nucleolin mAb MS-3 as indicated. After 72 h, cell number was determined by crystal violet staining. The data are reported as the mean of triplicate samples. (B) HB-19 inhibits migration of HUVECs. Cell migration was studied using a modified Boyden chamber. Cells were incubated (4 h at 37°C) with VEGF165, HB-19, or anti-nucleolin mAb MS-3 as above. Cells that migrated through the pore to the lower filter surface were counted and are shown as number per microscopic field at ×100 magnification. The data are the mean of three independent high-power fields/well performed in duplicate in two independent experiments. […] Aortic endothelial (ABAE) cells in the absence or presence of 3 nM PTN, 0.5 nM VEGF165, and 3 nM FGF-2 were seeded on a three-dimensional collagen gel in complete medium. […] Tubular network structures were quantified using phase contrast microscopy (×100). […] Quantification of endothelial cell invasion into the Matrigel was determined and is expressed as a mean of five fields per section from 3 Matrigel-plug sections per mouse. The results are expressed as the mean of five mice per group. […]

HUVECs [2] = assay: HUVEC migration assay (modified Boyden chamber); type: cell-based, human; settings: VEGF165; 1 µM HB-19 or 0.1 µM mAb MS-3; 4 h, 37°C; two independent experiments
Description: Figure 6 Inhibition of in vitro and in vivo angiogenesis by HB-19. (A) HB-19 inhibits proliferation of HUVECs. Twenty-four hours after seeding HUVECs in 2% FBS, cells were stimulated by 0.25 nM VEGF165, in the absence or presence of 1 µM HB-19 or 0.1 µM anti-nucleolin mAb MS-3 as indicated. After 72 h, cell number was determined by crystal violet staining. The data are reported as the mean of triplicate samples. (B) HB-19 inhibits migration of HUVECs. Cell migration was studied using a modified Boyden chamber. Cells were incubated (4 h at 37°C) with VEGF165, HB-19, or anti-nucleolin mAb MS-3 as above. Cells that migrated through the pore to the lower filter surface were counted and are shown as number per microscopic field at ×100 magnification. […] Tubular network structures were quantified using phase contrast microscopy (×100). […] Quantification of endothelial cell invasion into the Matrigel was determined and is expressed as a mean of five fields per section from 3 Matrigel-plug sections per mouse. The results are expressed as the mean of five mice per group. […]
HUVEC migration assays were performed using a 24-well chemotaxis chamber (Transwell, Corning Costar, France). […] The cells that had migrated through the pores to the lower filter surface were counted in three random high power fields in each well (magnification 100×). […]

nucleolin = settings: cited from earlier work
Excerpt: HB-19 presents pentavalently the tripeptide Kψ(CH2N)PR in which the reduced peptide bond provides high stability against serum proteases (Figure 1). HB-19 forms a stable complex with the cell-surface expressed nucleolin and is internalized by an active process. This le ... || The interaction of HB-19 with surface nucleolin was investigated using human breast cancer MDA-MB-231 tumor cells and human umbilical vein endothelial cells (HUVECs). […] Similarly, HB-19/Btn binds and forms a stable complex with surface nucleolin in a dose-dependent manner in both types of cell ... || Previously, guanosine-rich phosphodiester oligonucleotides (referred to as GROs) and endostatin have been reported to exert antitumoral and antiangiogenic activity, respectively, through interaction with surface nucleolin [21], [41], [42]. […] At 20°C, GRO ... || (+ 1 further places)

**Q.** Which results are given for “pseudo-tripeptide Lysψ(CH2N)-Pro-Arg coupled to a template (H2NLys-Lys-Lys-Gly-Pro-Lys-Glu-Lys-AhxCONH2) [HB-19, pseudopeptide presenting pentavalently the pseudo-tripeptide Lysψ(CH2N)-Pro-Arg coupled to a template]”?
**A.** colony formation (PC3 cells): reduced markedly; inhibition of HUVEC proliferation (HUVECs [1]): inhibited dramatically both of these events down to levels comparable to that of unstimulated cells; inhibition of HUVEC migration (HUVECs [2]): inhibited dramatically both of these events down to levels comparable to that of unstimulated cells; binding site on nucleolin (nucleolin): binds the C-terminal RGG domain of cell-surface expressed nucleolin; heparan sulfate proteoglycan requirement of binding to surface nucleolin (nucleolin): endostatin but not HB-19 binding to surface nucleolin requires heparan sulfate proteoglycans; reversibility of binding to surface nucleolin (nucleolin; physiological conditions): bind surface nucleolin in an irreversible manner
